Results taken from patent publication US7273848B2, “Apolipoprotein A-I agonists and their use to treat dyslipidemic disorders” (priority 1997, dated 2007).
Non-standard residues stand in square brackets, D forms with d. Residues, ends and D or L forms follow the SMILES beside them. Aib = CC(C)(N)C(=O)O

Experiments:
[1] = target: T1, LCAT (purified from human plasma) (Homo sapiens, UniProt P04180); test: LCAT activation assay; format: biochemical; settings: LCAT activation as compared with native human ApoA-I (= 100%), equivalent masses
T1 construct: from tissue; host or cells: human plasma
T1 sequence (P04180 25-440): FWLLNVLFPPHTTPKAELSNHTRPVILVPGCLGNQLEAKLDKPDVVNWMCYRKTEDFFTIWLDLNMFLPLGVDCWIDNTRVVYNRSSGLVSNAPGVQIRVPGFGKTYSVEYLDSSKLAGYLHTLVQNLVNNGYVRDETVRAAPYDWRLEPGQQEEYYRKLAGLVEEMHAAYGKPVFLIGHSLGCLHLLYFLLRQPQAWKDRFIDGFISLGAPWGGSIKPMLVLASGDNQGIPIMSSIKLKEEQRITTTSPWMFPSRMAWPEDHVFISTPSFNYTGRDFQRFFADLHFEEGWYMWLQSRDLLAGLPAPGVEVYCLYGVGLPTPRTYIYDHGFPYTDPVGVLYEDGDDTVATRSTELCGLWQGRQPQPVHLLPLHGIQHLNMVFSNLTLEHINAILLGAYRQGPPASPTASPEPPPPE
In short: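 Activity was expressed as percentage conversion of radiolabelled cholesterol to cholesteryl ester, normalised to native ApoA-I as 100%. LCAT purified from human plasma was added to peptide-preincubated EPC or POPC/cholesterol (20:1) small unilamellar vesicles at pH 7.4. Specific activity is the peptide concentration reaching the conversion plateau at a fixed timepoint.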

[2] = Circular dichroism helicity determination; format: physicochemical; settings: percent helicity; for He (%) TFE: 5 μM peptide, 90% vol TFE; for He (%) TFE / He (%) SUVs: 37° C.; for He (%) free: unbound peptide 5 μM in 5 mM phosphate buffer, pH 7.4, 37° C.; for He (%) SUVs: peptide-SUV complexes (20:1 EPC:Chol., Ri=30 and Ri=50); for He (%) mics: peptide-micelle complexes, Ri=100, 37° C.
In short: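 Far-UV CD (190–260 nm) at 37° C on 5 μM peptide in 5 mM phosphate pH 7.4, free, with EPC:Chol 20:1 SUVs (Ri 30 or 50), lysophosphatidylcholine micelles (Ri 100) or 90% TFE. Spectra converted to molar ellipticity per residue; helicity from 222 nm ellipticity or CONTIN fitting to reference spectra, ±5%.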

ACTIVITY (%) LCAT [1] [%]	He (%) TFE [2] [%]	He (%) free [2] [%]	He (%) SUVs [2] [%]	He (%) mics [2] [%]	Structure (SMILES)
29	49	25	21	49	CC(C)C[C@H](NC(=O)[C@H](CCCCN)NC(=O)[C@H](CCC(N)=O)NC(=O)[C@H](CCCCN)NC(=O)[C@H](Cc1c[nH]c2ccccc12)NC(=O)[C@H](C)NC(=O)[C@H](CCC(=O)O)NC(=O)[C@H](CC(C)C)NC(=O)C(C)(C)NC(=O)[C@H](CCC(=O)O)NC(=O)[C@H](CC(N)=O)NC(=O)[C@H](CC(C)C)NC(=O)[C@H](CC(C)C)NC(=O)[C@H](CCC(=O)O)NC(=O)[C@H](CCCNC(=N)N)NC(=O)[C@H](Cc1ccccc1)NC(=O)[C@H](CC(C)C)NC(=O)[C@H](CC(=O)O)NC(=O)[C@H](CC(C)C)NC(=O)[C@@H](NC(=O)[C@@H]1CCCN1)C(C)C)C(=O)N[C@@H](CCCCN)C(=O)O [compound 38, PVLDLFRELLNEXLEAWKQKLK] (H-PVLDLFRELLNE[Aib]LEAWKQKLK-OH)
25	69	53	85	73	CC(C)C[C@H](NC(=O)[C@H](C)NC(=O)[C@H](CCC(=O)O)NC(=O)[C@H](CC(C)C)NC(=O)C(C)(C)NC(=O)[C@H](CCC(=O)O)NC(=O)[C@H](CC(N)=O)NC(=O)[C@H](CC(C)C)NC(=O)[C@H](CC(C)C)NC(=O)[C@H](CCC(=O)O)NC(=O)[C@H](CCCNC(=N)N)NC(=O)[C@H](Cc1c[nH]c2ccccc12)NC(=O)[C@H](CC(C)C)NC(=O)[C@H](CC(=O)O)NC(=O)[C@H](CC(C)C)NC(=O)[C@@H](NC(=O)[C@@H]1CCCN1)C(C)C)C(=O)N[C@@H](CCCCN)C(=O)N[C@@H](CCC(N)=O)C(=O)N[C@@H](CCCCN)C(=O)N[C@@H](CC(C)C)C(=O)N[C@@H](CCCCN)C(=O)O [compound 41, PVLDLWRELLNEXLEALKQKLK] (H-PVLDLWRELLNE[Aib]LEALKQKLK-OH)
25	76	15	27	74	CC(C)C[C@H](NC(=O)[C@H](C)NC(=O)[C@H](CCC(=O)O)NC(=O)[C@H](Cc1c[nH]c2ccccc12)NC(=O)C(C)(C)NC(=O)[C@H](CCC(=O)O)NC(=O)[C@H](CC(N)=O)NC(=O)[C@H](CC(C)C)NC(=O)[C@H](CCCCN)NC(=O)[C@H](CCC(=O)O)NC(=O)[C@H](CCCNC(=N)N)NC(=O)[C@H](Cc1ccccc1)NC(=O)[C@H](CCC(=O)O)NC(=O)[C@H](CC(=O)O)NC(=O)[C@H](CC(C)C)NC(=O)[C@@H](NC(=O)[C@@H]1CCCN1)C(C)C)C(=O)N[C@@H](CCCCN)C(=O)N[C@@H](CCC(N)=O)C(=O)N[C@@H](CCCCN)C(=O)N[C@@H](CC(C)C)C(=O)N[C@@H](CCCCN)C(=O)O [compound 42, PVLDEFREKLNEXWEALKQKLK] (H-PVLDEFREKLNE[Aib]WEALKQKLK-OH)
25	–	20	–	86	CC(C)C[C@@H](NC(=O)[C@@H](C)NC(=O)[C@@H](CCC(=O)O)NC(=O)[C@@H](CC(C)C)NC(=O)C(C)(C)NC(=O)[C@@H](CCC(=O)O)NC(=O)[C@@H](CC(N)=O)NC(=O)[C@@H](CC(C)C)NC(=O)[C@@H](CCCCN)NC(=O)[C@@H](CCC(=O)O)NC(=O)[C@@H](CCCNC(=N)N)NC(=O)[C@@H](Cc1ccccc1)NC(=O)[C@@H](CCC(=O)O)NC(=O)[C@@H](CC(=O)O)NC(=O)[C@@H](CC(C)C)NC(=O)[C@H](NC(=O)[C@H]1CCCN1)C(C)C)C(=O)N[C@H](CCCCN)C(=O)N[C@H](CCC(N)=O)C(=O)N[C@H](CCCCN)C(=O)N[C@H](CC(C)C)C(=O)N[C@H](CCCCN)C(=O)O [compound 44, pvldefreklneXlealkqklk] (H-[dP][dV][dL][dD][dE][dF][dR][dE][dK][dL][dN][dE][Aib][dL][dE][dA][dL][dK][dQ][dK][dL][dK]-OH)
